Measurements as given in PubChem BioAssay AID1645864 (Buhrlage Lab, Dana-Farber Cancer Institute and Novartis …, 2021).
Activity calls are given as the source filed them.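 The calls were made as follows: active = maximal inhibition of USP17 at or above 30% in the confirmation dose-response, a value not among the printed readouts; inactive = the rest.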

These compounds were tested against Ubiquitin carboxyl-terminal hydrolase 17-like protein 5 (Homo sapiens) (UniProt A8MUK1) (assay: ubiquitin-specific protease 17 DUB inhibitors, concentration-effect assay, cell-free, verification of initial screening actives (AID 1645864)). Settings: purified USP17, ubiquitin-rhodamine cleavage fluorescence, 3 h.
Chain of Ubiquitin carboxyl-terminal hydrolase 17-like protein 5 (Homo sapiens) (A8MUK1 whole entry, looked up): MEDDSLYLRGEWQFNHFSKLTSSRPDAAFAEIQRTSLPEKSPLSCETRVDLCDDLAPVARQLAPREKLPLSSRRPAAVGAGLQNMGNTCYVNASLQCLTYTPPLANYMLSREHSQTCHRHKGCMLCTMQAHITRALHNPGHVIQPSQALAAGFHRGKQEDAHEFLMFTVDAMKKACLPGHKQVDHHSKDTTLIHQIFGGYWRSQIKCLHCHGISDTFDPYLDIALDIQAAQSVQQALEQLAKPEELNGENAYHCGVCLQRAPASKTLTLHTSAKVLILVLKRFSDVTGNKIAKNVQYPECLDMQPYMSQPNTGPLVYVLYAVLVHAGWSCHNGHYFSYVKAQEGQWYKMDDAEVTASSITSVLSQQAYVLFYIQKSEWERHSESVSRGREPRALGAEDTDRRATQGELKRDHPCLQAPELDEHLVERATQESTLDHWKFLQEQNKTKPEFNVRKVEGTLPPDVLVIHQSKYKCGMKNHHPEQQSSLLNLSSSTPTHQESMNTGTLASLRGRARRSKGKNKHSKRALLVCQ
`Cc1ccc2c(c1C)NC(=O)[C@]21[C@@H]2C(=O)N(c3cccc(Cl)c3)C(=O)[C@@H]2[C@@H]2CCCN21` was tested, and the IC50 was > 50 µM (inactive). For `O=C(Nc1ccc(Br)cn1)c1nc2ccccc2nc1N1CCCCC1`, the IC50 was > 50 µM (inactive). In the case of `COc1ccc(C(=O)NCC(c2ccc3c(c2)CCCN3C)N2CCCC2)cc1` (centres undefined), the IC50 is reported as > 50 µM (inactive). In the case of `CCOC(=O)c1c(C)nc2n(Cc3ccccc3)c3ccccc3n12`, the IC50 is reported as 23 µM. Compound `Cc1ccc(S(=O)(=O)N2CCC3(CC2)NC(=O)c2ccccc2N3)c(C)c1` has an IC50 of 17.9 µM. With `O=C(CCCCn1c(=O)[nH]c2ccccc2c1=O)Nc1cccc(Cl)c1` the IC50 was 19.4 µM. Work on `Cn1c(=O)c2cc(C(=O)Nc3ccc(F)cc3)cnc2n(C)c1=O` yielded an IC50 of 22.9 µM. `COc1ccc(CCNC(=O)CCn2c(=O)c3ccccc3n(Cc3ccc(C)cc3)c2=O)cc1OC` was tested, and the IC50 was 28.6 µM. In the case of `Cc1ccc(-c2c(C(=O)Nc3ccc(S(N)(=O)=O)cc3)oc(=O)c3ccccc23)cc1`, the IC50 is reported as 31.9 µM. `O=C(Nc1ccc(Cl)cc1)Nc1cccn2ncnc12` was tested, and the IC50 was 21.7 µM. In the case of `Cc1cc(NC(=O)COc2ccc3oc4ccccc4c3c2)no1`, the IC50 is reported as 31.4 µM. For `CC(=O)NCc1nc(-c2ccc3c(c2)nc(C)c(=O)n3C2CCCC2)no1`, the IC50 was > 50 µM (inactive). `Cc1noc(-c2cc(=O)n(CC(=O)NCc3ccccc3F)c3ccccc23)n1` was tested, and the IC50 was 4.88 µM. In the case of `COc1ccc(NC(=O)COc2cc(CSc3ccccc3)ncc2OC)cc1`, the IC50 is reported as 43.7 µM. With `COc1ccc2c(c1)CCc1c-2n[nH]c1C(=O)Nc1cc(C)on1` the IC50 was 4.67 µM. Work on `O=C(O)c1ccccc1C(=O)Nc1ccc(SC(C(=O)Nc2cccc(Cl)c2)c2ccccc2)cc1` (centres undefined) yielded an IC50 of 23.4 µM. In the case of `COc1cc2c(cc1OC)-c1cc(NCc3cc(OC)c(OC)c(OC)c3)nc(=O)n1CC2`, the IC50 is reported as > 50 µM (inactive). `COc1ccccc1NC(=O)c1cc(-c2ccccn2)nc2ccccc12` gave an IC50 of 9.53 µM. For `CC1CCc2c(sc3ncnc(NC4CCN(CC(N)=O)CC4)c23)C1` (centres undefined), the IC50 was > 50 µM (inactive). Work on `O=C1CC(NS(=O)(=O)c2ccc3ccccc3c2)CN1c1cccc(F)c1` (centres undefined) yielded an IC50 of 47.6 µM. In the case of `COc1cccc2c1NC(=O)C21CCN(C(=O)Nc2cccc(C)c2)CC1`, the IC50 is reported as 20.1 µM. In the case of `COC(=O)C1C(c2ccc(Cl)cc2Cl)C2(C(=O)c3ccccc3C2=O)C2C=Cc3ccccc3N12` (centres undefined), the IC50 is reported as > 50 µM (inactive). In the case of `Fc1ccc(Nc2nc(Nc3cccc(F)c3)nc3nccnc23)cc1`, the IC50 is reported as > 50 µM (inactive). `O=C(Cc1nnc2c(-c3nc(C4CC4)no3)cccn12)Nc1ccccc1` gave an IC50 of 20.1 µM. In the case of `Cc1cccc(CNC(=O)C2CCCN(S(=O)(=O)Cc3ccc(F)cc3)C2)c1` (centres undefined), the IC50 is reported as 19.1 µM. With `c1ccc(CN2CCN(c3nc4ccccc4n4nnnc34)CC2)cc1` the IC50 was > 50 µM (inactive). Compound `CCCCCCCc1cc(O)cc(OC(=O)c2c(CCCCCCC)cc(O)cc2O[C@H]2O[C@H](C(O)CO)[C@@H](O)[C@@H]2O)c1` (some centres undefined) has an IC50 of 34.1 µM. In the case of `COc1ccccc1CNC(=O)c1ccccc1OCc1ccccc1Cl`, the IC50 is reported as > 50 µM (inactive). Compound `O=C1NCCCC1Cc1ccc(-c2cccc(C(=O)N3CCc4ccccc4C3)c2)cc1` (centres undefined) has an IC50 of 38.2 µM. In the case of `N#Cc1ccc(NC(=O)COC(=O)c2ccc3ccccc3n2)cc1`, the IC50 is reported as > 50 µM (inactive). In the case of `Cc1sc(NC(=O)/C=C/c2ccco2)nc1-c1ccccc1`, the IC50 is reported as > 50 µM (inactive). `O=C(CCCCn1c(=O)c2ccccc2n(Cc2ccccc2F)c1=O)NCCc1ccccc1` showed an IC50 of 16.8 µM. With `CCn1ccc2c(cc(C(=O)Nc3ccccc3F)n2C)c1=O` the IC50 was > 50 µM (inactive). Work on `COc1ccc(Cn2c(=O)[nH]c3cc(C(=O)NCCCN4CCN(c5cccc(Cl)c5)CC4)ccc3c2=O)cc1` yielded an IC50 of 3.03 µM. With `COc1ccc(OC)c(NC(=O)CS(=O)(=O)c2cn(CC(=O)N3CCC(C)CC3)c3ccccc23)c1` the IC50 was 27.2 µM. Compound `Cc1nc(C(=O)N[C@@H](C)C(=O)NCc2ccc3c(c2)OCO3)cc2c1[nH]c1ccccc12` has an IC50 of 27.2 µM. For `Cc1nc2cccnc2n1C1CCN(C(=O)c2cc3cc(Cl)ccc3[nH]2)C1` (centres undefined), the IC50 was > 50 µM (inactive). In the case of `COC(=O)c1cc(C#N)c(NCc2ccccc2)nc1C`, the IC50 is reported as 13.4 µM. `COc1ccc(C)cc1NC(=O)Cc1csc(NC(=O)c2ccc(=O)[nH]c2)n1` gave an IC50 of 40.5 µM. In the case of `Cc1ccc(S(=O)(=O)N(C)C)cc1NC(=O)Cc1ccc(Cl)c(Cl)c1`, the IC50 is reported as > 50 µM (inactive). In the case of `COc1ccc(NC(=O)c2sc(N3CCOCC3)nc2-c2ccccc2)c(OC)c1`, the IC50 is reported as 27.7 µM. In the case of `COC(=O)[C@]1(O)O[C@@]2(C(=O)OC)c3c(oc4cc(C)cc(O)c4c3=O)[C@H]3c4c(oc5cc(C)cc(O)c5c4=O)C[C@H]1[C@H]32`, the IC50 is reported as > 50 µM (inactive). With `Cc1ccc(NC(=O)Cc2nnc3c(-c4nc(C5CC5)no4)cccn23)cc1` the IC50 was 4.85 µM. With `Cc1ccc(Cc2nc(-c3ccc(=O)[nH]c3)no2)cc1` the IC50 was > 50 µM (inactive). For `N#Cc1ccccc1Cn1c(=O)n(CCCCC(=O)NCCc2ccccc2)c(=O)c2ccccc21`, the IC50 was 10 µM. With `Cc1nn(C)c2c1[C@@H](c1ccc(F)cc1)[C@H](NC(=O)c1ccccc1)C(=O)N2` the IC50 was > 50 µM (inactive). With `CCOC(=O)c1c(C)oc2nc(CSc3ccccc3)[nH]c(=O)c12` the IC50 was > 50 µM (inactive). With `CC(=O)N1Cc2ccccc2CC2(CCCN(CC3CCOCC3)C2)C1` (centres undefined) the IC50 was > 50 µM (inactive). `CC1CCN(S(=O)(=O)c2ccc(C(=O)Nc3ccc(S(N)(=O)=O)cc3)cc2)CC1` gave an IC50 of 38.3 µM. `O=C(/C=C/c1c(F)cccc1Cl)N1CCc2ccccc2C1` gave an IC50 of 34.7 µM. `O=C(/C=C/c1cnc2ccccc2c1)NCc1ccccc1` gave an IC50 of 43.4 µM. In the case of `O=C(c1ccc(COc2cccc3ccccc23)o1)N1CCC(Cc2ccccc2)CC1`, the IC50 is reported as > 50 µM (inactive). In the case of `O=C(Nc1ccccc1Br)c1ccn(COc2ccccc2F)n1`, the IC50 is reported as 16.5 µM. Work on `O=C(Cc1cccs1)Nc1cc(F)c2nc(N3CCOCC3)ccc2c1` yielded an IC50 of 31.2 µM. `Cc1cc(O)c(Oc2cc(C)cc(O)c2O)c(O)c1` gave an IC50 of 26.6 µM. `Cc1cccc(C(=O)Nc2cccc(SC(C(=O)Nc3ccc(Cl)c(C(=O)O)c3)c3ccccc3)c2)c1` (centres undefined) gave an IC50 of 15.2 µM. `CCN(CC(=O)Nc1cc(C)on1)c1cccc2ccccc12` was tested, and the IC50 was > 50 µM (inactive). In the case of `COc1ccc(C2C(C(=O)C(C)(C)C)N3c4ccccc4C=CC3C23C(=O)c2ccccc2C3=O)c(OC)c1` (centres undefined), the IC50 is reported as > 50 µM (inactive). Compound `CCCc1nc2c(sc3nc4c(cc32)COC(C)(C)C4)c(=O)n1CC(=O)Nc1ccccc1C` has an IC50 of 32.2 µM. Work on `N#Cc1cccc(S(=O)(=O)N2CCc3nc4ccccc4n3CC2)c1` yielded an IC50 of 19.5 µM. For `CO/C=C/C(=O)c1cc2cnc3c(=N)cc(NC(C)=O)c([nH]1)c23`, the IC50 was > 50 µM (inactive). In the case of `Cc1ccc(-c2ncc(C(=O)NCc3cccc(C)c3)c(-c3ccncc3)n2)cc1`, the IC50 is reported as > 50 µM (inactive). In the case of `CCC(C(=O)NCc1ccncc1)N(c1cccc(Cl)c1)S(C)(=O)=O` (centres undefined), the IC50 is reported as > 50 µM (inactive). `O=C(O)COc1ccccc1/C=C1\CCc2c1nc1ccccc1c2C(=O)O` was tested, and the IC50 was > 50 µM (inactive). In the case of `COc1ccc(C(=O)CSc2nnc(-c3cccnc3)n2-c2ccccc2)cc1`, the IC50 is reported as > 50 µM (inactive). `COc1ccccc1-c1nc2c3c(ncn2n1)Oc1c(c(C)nn1-c1ccccc1)C3c1cccnc1` (centres undefined) showed an IC50 of 5.68 µM. With `COc1ccc2nc(Nc3nc(-c4cnc(N5CCOCC5)nc4C)cc(=O)[nH]3)nc(C)c2c1` the IC50 was > 50 µM (inactive). `COc1ccc(-c2nc(SCC(=O)Nc3ccc(C(C)=O)cc3)n[nH]2)cc1` showed an IC50 of 10.8 µM. With `CCc1nc(-c2cccc(NC(=O)c3ccc(C#N)cc3F)c2)no1` the IC50 was > 50 µM (inactive). `O=C(OCCCN1C(=O)c2cccc3c(N4CCCCC4)ccc(c23)C1=O)c1ccccn1` was tested, and the IC50 was > 50 µM (inactive). For `O=C(COc1ccc(S(=O)(=O)N2CCOCC2)cc1)N1CCC(Cc2ccccc2)CC1`, the IC50 was > 50 µM (inactive). In the case of `Cc1ccc2cc(CCNC(=O)c3cccc(Br)c3)c(=O)[nH]c2c1`, the IC50 is reported as 38.9 µM. Compound `O=C(Nc1ccc2c(c1)OCO2)c1cc(-c2cccnc2)n(-c2ccccc2)n1` has an IC50 of 47.6 µM. `COc1ccc(CCNC(=O)CCCCn2c(=O)c3ccccc3n(Cc3cccc(Cl)c3)c2=O)cc1OC` gave an IC50 of 35.3 µM. `O=c1ncn(Cc2ccc3c(c2)OCO3)cc1-c1ncc(C(F)(F)F)cc1Cl` gave an IC50 of 43.9 µM. `Cc1ccc(CN2C(=O)c3cc4ccccc4n3CC2(C)C(=O)NCc2ccccc2)o1` (centres undefined) showed an IC50 of 26.7 µM. In the case of `Cc1cc(C)n2nc(CNc3cccc(Cl)c3)nc2n1`, the IC50 is reported as > 50 µM (inactive). In the case of `O=C(Nc1cc(F)c2nc(N3CCOCC3)ccc2c1)C1CC1`, the IC50 is reported as 7.47 µM. In the case of `COc1cccc(-n2ccc(=O)c(-c3nc(-c4ccccc4Cl)no3)n2)c1`, the IC50 is reported as > 50 µM (inactive). `Cc1ccc(-c2nnc(-n3ncc(C#N)c3N)c3ccccc23)cc1C` was tested, and the IC50 was > 50 µM (inactive). `COc1ccc(NC(=O)CSc2nnc(Cc3cccc4ccccc34)n2C)cc1` was tested, and the IC50 was > 50 µM (inactive). In the case of `CN(C)C1CCN(C(=O)c2cc(-c3ccn(-c4ccccc4)n3)n3ccccc23)CC1`, the IC50 is reported as > 50 µM (inactive). In the case of `CCN1C(SCc2ccc(F)cc2)=NS(=O)(=O)c2ccccc21`, the IC50 is reported as > 50 µM (inactive). In the case of `COc1ccc(S(=O)(=O)Nc2ccc(Nc3ccc(-n4cccn4)nn3)cc2)cc1`, the IC50 is reported as 44.9 µM. Work on `O=C(Nc1cccc(Cl)c1)N1CCC(c2cc(-c3ccco3)n[nH]2)CC1` yielded an IC50 of 3.52 µM. With `Cc1ccc(Cn2nnc(-c3ccccc3Cl)n2)cc1` the IC50 was > 50 µM (inactive). `CCc1ccc(NC(=O)CN=C2NS(=O)(=O)C(c3ccc(CC)cc3)=C2C)cc1` showed an IC50 of 32.5 µM. In the case of `COc1ccc(NC(=O)c2ccccc2OCC(=O)Nc2ccccc2C(F)(F)F)c(C)c1`, the IC50 is reported as 26.9 µM. With `Cc1ccc(NC(=O)c2nnn(-c3ccccc3Br)c2C)cc1C` the IC50 was > 50 µM (inactive).
